From patent publication US6465196B1, “Drug screen for identifying an agent that modulates low density lipoprotein receptor adaptin-ligand binding” (Board of Regents, The University of Texas System, priority 2001, dated 2002) come the findings set out here.

The subject of the first series is a strand of SEQ ID NO:1. As to the kind of experiment: Specific hybridization of LDLR adaptin domain-encoding polynucleotides under stringent conditions. Further details: key: +: hybridize with a strand of SEQ ID NO:1 under Conditions I and/or II. The conditions noted are these: CC domain encoding polynucleotides; Conditions I and/or II. Format: binding, human. The source says: These natural sequence LDLR adaptin polynucleotides provide hybridization probes and replication/amplification primers having a disclosed LDLR adaptin domain encoding cDNA sequence or fragments thereof sufficient to effect specific hybridization thereto. Such primers or probes are at least 12, preferably at least 24, more preferably at least 36 and most preferably at least 96 bases in length.
As for “SEQ ID NO:1, nucleotides 742-770: LDLR adaptin CC domain encoding polynucleotide (DNA GTCTGGGAGCTGGATGATGGCCTGGATGA; chemistry not given here)”, the Hybridization result is given as “+”.

For “SEQ ID NO:1, nucleotides 801-828: LDLR adaptin CC domain encoding polynucleotide (DNA AAACCCTCAGGTCCTGGACACTGGCCTG; chemistry not given here)”, the Hybridization entry is reported as “+”. On the same count and under the same terms, as for “SEQ ID NO:1, nucleotides 799-824: LDLR adaptin CC domain encoding polynucleotide (DNA ACAAACCCTCAGGTCCTGGACACTGG; chemistry not given here)”, the entry is “+”; as for “SEQ ID NO:1, nucleotides 775-789: LDLR adaptin CC domain encoding polynucleotide (DNA TTTTCGAGGCTTGCC; chemistry not given here)”, “+”. Consider “SEQ ID NO:1, nucleotides 784-809: LDLR adaptin CC domain encoding polynucleotide (DNA CTTGCCCAGTCTCGGACAAACCCTCA; chemistry not given here)”, for which the Hybridization result was “+”.

Still in this series, the particulars now being: PTB domain encoding polynucleotides; Conditions I and/or II.
As to “SEQ ID NO:1, nucleotides 142-164: LDLR adaptin PTB domain encoding polynucleotide (DNA TTCAGCCTCAAGTACCTGGGCAT; chemistry not given here)”, the Hybridization entry is on record as “+”. With “SEQ ID NO:1, nucleotides 297-320: LDLR adaptin PTB domain encoding polynucleotide (DNA GACAGACAACCTCACCAACCAGCT; chemistry not given here)”, the Hybridization result is given as “+”.

For the substance “SEQ ID NO:1, nucleotides 263-286: LDLR adaptin PTB domain encoding polynucleotide (DNA TGACTCTGAAGGTGTCGCCACGGG; chemistry not given here)”, the Hybridization result is “+”.

For “SEQ ID NO:1, nucleotides 185-218: LDLR adaptin PTB domain encoding polynucleotide (DNA AGGGTGAGGAGCTGTCGGCCGCCGCCATCAAGAG; chemistry not given here)”, the Hybridization result is recorded as “+”. The same measure, in the same setting: as for “SEQ ID NO:1, nucleotides 321-344: LDLR adaptin PTB domain encoding polynucleotide (DNA CATTGAGAACGTGTCCATATACAG; chemistry not given here)”, the entry is “+”. On to “SEQ ID NO:1, nucleotides 345-368: LDLR adaptin PTB domain encoding polynucleotide (DNA GATCTCCTATTGCACAGCAGACAA; chemistry not given here)”, for which the Hybridization result is on record as “+”. On to “SEQ ID NO:1, nucleotides 417-440: LDLR adaptin PTB domain encoding polynucleotide (DNA GAGCCTCGAGTGCCACGCCTTCCT; chemistry not given here)”, for which the Hybridization result is “+”. As to “SEQ ID NO:1, nucleotides 511-525: LDLR adaptin PTB domain encoding polynucleotide (DNA TTTTGGCAGGTGTCC; chemistry not given here)”, the Hybridization entry was “+”. For “SEQ ID NO:1, nucleotides 249-272: LDLR adaptin PTB domain encoding polynucleotide (DNA GAAGCTGCAGAAGGTGACTCTGAA; chemistry not given here)”, the Hybridization entry was “+”.

With “SEQ ID NO:1, nucleotides 491-511: LDLR adaptin PTB domain encoding polynucleotide (DNA CCTTCAAAGTCGCCTTTGAGT; chemistry not given here)”, the Hybridization entry is “+”. For “SEQ ID NO:1, nucleotides 442-465: LDLR adaptin PTB domain encoding polynucleotide (DNA TGCACCAAGCGGAAGATGGCACAG; chemistry not given here)”, the Hybridization result is “+”. For “SEQ ID NO:1, nucleotides 369-392: LDLR adaptin PTB domain encoding polynucleotide (DNA GATGCACGACAAGGTGTTTGCATA; chemistry not given here)”, the Hybridization entry is recorded as “+”.

Consider “SEQ ID NO:1, nucleotides 393-416: LDLR adaptin PTB domain encoding polynucleotide (DNA CATCGCCCAGAGCCAGCACAACCA; chemistry not given here)”, for which the Hybridization result is “+”.

A further series concerns the target T1, GST-PTB domain fusion protein (Homo sapiens, UniProt Q5SW96).
T1 construct: made in house
T1 sequence (Q5SW96 48-175): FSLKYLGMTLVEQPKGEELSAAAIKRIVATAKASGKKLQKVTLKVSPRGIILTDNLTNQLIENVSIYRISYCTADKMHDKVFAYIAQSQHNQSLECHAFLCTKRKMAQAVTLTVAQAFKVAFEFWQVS
As to the kind of experiment: Fluorescence polarization binding of fluorescent LDLR peptide probe to the PTB domain. The conditions noted are these: after 5 min at 4° C. As for the experimental part:
Peptide binding to the GST-PTB domain fusion protein is measured by using fluorescence polarization (also known as fluorescence anisotropy; Li, et al. 1997 Proc. Natl. Acad. Sci. USA 94:7204-7209) is a protocol adapted from Howell et al. 1999 Mol Cell Biol 19, 5179-5188. A16-mer LDLR peptide (acetyl-SINFDNPVYQKTTEDE-amide, residues 820-835 of SEQ ID NO:8) and its phosphorylated analog (phosphate on the tyrosine) are synthesized with an AMS 222 Multiple Peptide Synthesizer using TenetaGel S resin (Rapp Polymere) and purified by high-pressure liquid chromatography. Peptide concentrations are determined by spectrophotometry and confirmed by amino acid analysis. […] Reactions are stopped with 5 μmol of Tris HCl (pH 8.0) and analyzed by thin-layer chromatography (Silica gel 60; methanol-acetic acid-water [4:1:1]). […] Based on fluorescence intensity, the fluorescent peptide (probe) concentration in binding reaction mixtures was estimated to be 20 nM.
Binding measurements are performed in a Beacon 2000 Variable Temperature Fluorescence Polarization System (PanVera Corporation). Essentially, a constant concentration of fluorescent probe peptide is incubated with various concentrations of the GST-PTB domain or GST in 100 μl of 0.5% Triton X-100-20 mM glutathione-200 mM Tris HCl (pH 8.0) at 4° C. and fluorescence polarization is measured. […]
“acetyl-SINFDNPVYQKTTEDE-amide (Ac-SINFDNPVYQKTTEDE-NH2; also: fluorescein-C6 label, site not given here) [fluorescent probe peptide]”: the “Binding, percent of maximum” value is on record as 95%.

Staying with this series, now noted: linear Hill plot, noncooperative binding.
Turning to “acetyl-SINFDNPVYQKTTEDE-amide (Ac-SINFDNPVYQKTTEDE-NH2; also: fluorescein-C6 label, site not given here) [fluorescent probe peptide]”, the Hill plot slope was 1.0.
